US20110217337A1, “BIOACTIVE AGENT FOR BONE TISSUE ENGINEERING” (UNIVERSITY OF CONNECTICUT, priority 2010, published 2011)

How the values were obtained:
[1] = test system: MC3T3E1 cells; test: Cell proliferation, PicoGreen dsDNA assay; type: cell-based; settings: 100 μM in regular growth medium
Procedure: FIG. 3. 6-Bnz-cAMP promotes cell growth in the earliest day of cell culture (Day 1) and maintains the cell proliferation rate at Day 7 and Day 14. Error bars represent SD.
MC3T3E1 subtype 4 cell line was purchased from the […] (ATCC). The cells were grown to confluence, then seeded onto PLAGA discs at a density of 50,000 cells/scaffold. The cells were cultured on the discs in vitro in a 37° C. and 5% CO2 environment, using MEM alpha cell culture medium +10% Fetal Bovine Serum as a nutrient source. At specific time points, cultured cells were collected for various assays i.e., cell adhesion assays, cell proliferation assays, and cell differentiation studies.
Proliferation: Cell proliferation was tested using a PicoGreen dsDNA assay kit (Molecular Probes, Eugene, Oreg.) The procedure of the PicoGreen dsDNA assay was performed according to the manufacturer's instructions. Briefly, 5×10^4 cells ml^−1 were seeded in a well of a tissue culture plate. 100 μM of 6-Bnz-cAMP was added to the regular growth medium during cell seeding. The regular growth medium and 6-Bnz-cAMP (100 μM) were replaced every 3 to 4 days.

[2] = test system: Epac-Rap1 pathway; settings: unlike cAMP; cited from earlier work
[3] = test system: Protein Kinase A (PKA); settings: compared to non-specific cAMP analogue db-cAMP; cited from earlier work
[4] = test system: rat mesenchymal stem cells; test: ALP activity in mesenchymal stem cells; type: cell-based; settings: vs untreated control; day 7
Procedure: FIG. 10. ALP activity in untreated (control) rat mesenchymal stem cells and cells treated with BMP-2 or 6-Bnz-cAMP. A-BMP-2 peptide; E-6-Bnz-cAMP; F-Control. […] ALP activities of mesenchymal stem cells were induced by 6-Bnz-cAMP at day 7.
Cell adhesion, proliferation, and differentiation studies: Rabbit MSCs are plated onto PLAGA matrices at a plating density of 1×10^4 cells/cm^2 and cultured in standard basal medium. Four experimental groups are tested: (1) untreated cells, (2) 6-Bnz-cAMP treated cells, (3) BMP-2 treated cells, and (4) 6-Bnz-cAMP and BMP-2 treated cells. […] Initial cell adhesion is determined at 1 h, 3 h, 12 h, and 24 h. Cell proliferation and cell differentiation are determined at 1, 7, 14, and 21 days. Calcium deposition and ALP activity is also measured at days 3, 7, 14, and 21 in untreated cells compared to cells treated with BMP-2 or 6-Bnz-cAMP (FIGS. 9 and 10). […] For the cell adhesion assay, attached cells are quantified by crystal violet stain, a method routinely used to measure the initial cell adhesion. Cell proliferation is measured using a commercially available proliferation assay kit, MTS (Promega). For alkaline phosphatase (ALP) activity, the early markers of osteoblast differentiation are determined with a commercially availia ALP assay kit (Bio-rad). […]

[5] = test system: MC3T3-E1 cells; test: Matrix mineralization, quantitative calcium assay; type: cell-based; settings: 100 μM in mineralization medium vs mineralization medium alone; day 21
Procedure: FIG. 6. 6-Bnz-cAMP promotes osteoblastic mineralization by day 21. After 20 days of culture of osteoblast-like MC3T3-E1 cells in mineralization medium with or without 6-Bnz-cAMP, quantitative calcium levels were determined. […] To facilitate the comparison of different experimental settings, the level of calcium measurement of the “Control” cells cultured in the regular growth medium was set to one relative unit.
MC3T3-E1 cells were grown in mineralization media (The minimal media described in Example 1 with, 1% of antibiotic (100 U/ml penicillin G and […] streptomycin), 3 mM β-glycerolphosphate, and 10 μg/ml ascorbic acid). 6-Bnz-cAMP was added to the culture medium to a final concentration of 100 μM for experiments; mineralization media only was used for positive controls. For the qualitative determination of calcified matrix mineralization, at day 21, media were removed and cells were rinsed with calcium-free PBS for 3 times. The precipitated calcium of mineralized matrix was dissolved overnight in 0.6N hydrochloric acid at 4° C. The extracted calcium was then measured with a calcium assay kit (Calcium Liquicolor, Stanbio Laboratory, Boerne, Tex.) according to the manufacturer's instructions. The absorbance values were normalized to cellular DNA.

[6] = test system: rat mesenchymal stem cells; test: Proliferation of mesenchymal stem cells seeded on PLAGA scaffolds, PicoGreen dsDNA assay; type: cell-based; settings: each time point, day 7 to day 21
Procedure: FIG. 8. Effect of 6-Bnz-cAMP on the proliferation of rat mesenchymal stem cells seeded on PLAGA scaffolds. Cell proliferation was assessed by PicoGreen dsDNA assay.
Evaluation of the in vitro cellular behaviors of rabbit MSC on the 6-Bnz-cAMP loaded PLAGA microsphere based scaffold: For in vitro studies, cells are plated onto the 6-Bnz-cAMP loaded and unloaded control scaffolds. Cell adhesion is determined at 1, 3, 6 and 24 hours. Cell proliferation levels are determined at Day 3, 7, and 14 (FIG. 8). Cell differentiation and mineralization are determined at Day 7, 14, 21, and 28. At the pre-determined times, scaffolds will be removed from the medium and unattached cells are removed by washing with PBS 4 times. The in vitro assays are performed on the attached cells according to the procedures described above in Example 3.

[7] = designed to resist enzymatic degradation in vivo; cited from earlier work
[8] = test system: phophodiesterase; settings: cited from earlier work

## O=C(Nc1ncnc2c1ncn2C1O[C@@H]2COP(=O)([O-])O[C@H]2[C@H]1O)c1ccccc1.[Na+] (stereo partly drawn) [6-Bnz-cAMP, N^6-Benzoyladenosine-3′,5′-cyclic monophosphate]
[1]; Days 7, 14 and 21
  proliferation rate: maintained
[1]; first day of culturing (Day 1)
  cell growth: promote cell growth
[2]
  activation of the Epac-Rap1 pathway: does not activate
[3]
  activation of the Protein Kinase A (PKA) pathway: selectively activates
[4]
  ALP activity: increases ALP activity
[5]
  calcium deposition: further enhanced calcium deposition
[6]
  cell proliferation vs untreated control: No significant differences
[7]
  half-life: long half-life
[8]
  hydrolysis by phophodiesterase: resistant to hydrolysis
